This note sets out measurements from US20230286919A1, “ISOQUINOLINE DERIVATIVES FOR USE IN THERAPY” (Vestlandets Innovasjonsselskap AS, priority 2020, published 2023).

Data set [1] relates to PC3, 22Rv1, LNCaP, EPT3-M1-STAT3-GFP cells. The data set is described as follows: MTS cell proliferation assay. Type of data set: cell-based, human. As to conditions: FIGS. 1-4. As to the method: PC3, 22Rv1, LNCaP, EPT3-M1-STAT3 cells were seeded in 96-well plates for 24 hrs followed by treatment with different doses of 323-1 or 323-2. MTS assay was done after 3 days by adding 10 μl/well CellTiter 96@ AQueous One Solution Reagent (Promega, Madison, Wis., USA) for 4 hrs and the absorbance at 490 nm recorded using a Biotek machine.
To obtain the results shown in FIGS. 1-4, different cell lines were treated with indicated doses of compounds 323-1 and 323-2 for 72 hrs. All data are represented as the average±s.e.m (n=3). Significance was verified by using unpaired two-tailed Student's t-test. *p s 0.05 The total synthesis of compounds 323-1 and 323-2 was conducted as previously reported by Zhang et al. (Journal of the American Chemical Society. 2017; 139: 5558-67). The chemical structures of compounds 323-1 and 323-2 were validated by ^1H NMR, ^13C NMR.

Data set [2] deals with LNCaP tumours. Put plainly: Antitumor activity in vivo, LNCaP xenograft. The settings on record: IP daily for three weeks. As to the method: Four-week-old male BALB/c-nu nude mice (15-20 g) were obtained from the Shanghai BiKai Laboratory Animal Co., Ltd. (Shanghai, China). The animals were maintained under specific pathogen-free conditions with food and water supplied ad libitum in the Laboratory Animal Center of the Second Military Medical University. All animal experiments were carried out in accordance with the Guide for the Care and Use of Laboratory Animals of the National Institutes of Health and were approved by the Committee on the Ethics of Animal Experiments of the Second Military Medical University, China. LNCaP cells were harvested and re-suspended in PBS. A total of 5×10^6 cells were subcutaneously injected into the right flank. Tumour volume was calculated using the following formula: V=(L×[…])/2, where L is the length and W is the width of the tumour nodules measured with vernier callipers. Once the volume of the tumours reached 75-100 mm^3, the mice were randomly divided into three groups (n=6). […] Body weights and tumour volumes were measured before each drug injection. […]
The mice were treated daily for three weeks with IP injections of either vehicle (olive oil) or compound 323-2 (20 mg/kg or 40 mg/kg in the vehicle). Body weights and tumour volumes were measured before each drug injection. […]

In data set [3] the test system is DNA-binding domain of STAT1, STAT3, STAT5A, STAT5B. The data set is described as follows: STAT family DNA binding assay on nuclear extracts of DU145 cells. Type of data set: cell-based, human. As to conditions: 5-20 μM, 24 hrs. The procedure: The nuclear extraction was performed according to the STAT Family Transcription Factor Assay Kit (Abcam, ab207228). First, cells were washed with ice-cold PBS and Phosphatase Inhibitors Cocktail (125 mM NaF, […] p-glycerophosphatase, 250 mM PNPP, 25 mM NaVO3) in ice-cold PBVS was added and cells scraped off the dish. Then cells were collected at 300×g for 5 minutes at 4° C. The pellet was resuspended in hypotonic buffer (20 mM Hepes pH7.5, 5 mM NaF, 10 μM Na2MoO4, 0.1 mM EDTA) and 10% NP-40 was added to a final concentration 0.5% and mixed well. The mixture was centrifugated at 4° C. for 30 seconds in a microcentrifuge and supernatant was discarded. […] Stop solution was added when the wells turned medium to dark blue followed by measurement of absorbance at OD 450 nm. […]

Consider `C[C@@H]1CCC(c2cc3c4c(cncc4c2)[C@@H](C)C3)=C1C=O` [323-2, (15S,2R)-Delavatine A], for which the “Inhibition of proliferation of tumor-initiating and other tumor cells” value in data set [1] is reported as “efficiently inhibit the proliferation”. For the same compound, in data set [2] (20 mg/kg or 40 mg/kg, especially high dose), the CRPC tumour growth entry is listed as “significantly inhibited CRPC tumour growth”. For the same compound, in data set [2] (20 or 40 mg/kg), the Body weight change result is on record as “No significant body weight change”. In addition, the “Effect on DNA binding of STAT1, STAT3, STAT5A, STAT5B” value in data set [3] was “neither 323-1 nor 323-2 affected”.
